Literature values as cited in US10610500B2, “Chemosensory receptor ligand-based therapies” (Anji Pharma (US) LLC, priority 2011, dated 2020).

Key:
gut hormones = details: humans
sweet receptor = biological target: T1, sweet receptor (Homo sapiens, UniProt Q7RTX0+Q8TE23); details: relative sweetness on a weight comparison basis to sucrose (=1.0); ranges: relative sweetness varied with the concentration of sucrose
T1 sequence (Q8TE23 20-839): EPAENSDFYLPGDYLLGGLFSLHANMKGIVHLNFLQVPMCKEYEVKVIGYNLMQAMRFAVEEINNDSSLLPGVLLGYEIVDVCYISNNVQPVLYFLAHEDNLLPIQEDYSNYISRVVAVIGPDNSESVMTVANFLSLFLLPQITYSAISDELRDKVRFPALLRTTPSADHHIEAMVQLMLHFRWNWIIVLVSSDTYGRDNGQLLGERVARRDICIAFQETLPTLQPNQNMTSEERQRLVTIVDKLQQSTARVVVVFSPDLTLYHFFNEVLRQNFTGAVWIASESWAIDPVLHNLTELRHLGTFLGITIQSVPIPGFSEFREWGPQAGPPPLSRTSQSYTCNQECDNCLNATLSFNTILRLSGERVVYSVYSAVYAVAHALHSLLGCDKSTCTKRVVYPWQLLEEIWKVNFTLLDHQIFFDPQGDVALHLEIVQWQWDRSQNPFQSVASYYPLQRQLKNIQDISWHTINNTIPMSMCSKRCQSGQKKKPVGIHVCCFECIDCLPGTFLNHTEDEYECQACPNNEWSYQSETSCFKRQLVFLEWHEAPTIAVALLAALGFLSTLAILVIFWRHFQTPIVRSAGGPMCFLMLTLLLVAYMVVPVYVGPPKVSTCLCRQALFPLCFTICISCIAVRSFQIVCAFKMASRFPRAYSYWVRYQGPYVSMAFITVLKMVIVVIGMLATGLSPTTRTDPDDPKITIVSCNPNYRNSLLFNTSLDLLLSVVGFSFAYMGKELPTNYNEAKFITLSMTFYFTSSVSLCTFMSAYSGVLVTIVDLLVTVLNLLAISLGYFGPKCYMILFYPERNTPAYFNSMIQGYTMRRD
T1 sequence (Q7RTX0 21-852): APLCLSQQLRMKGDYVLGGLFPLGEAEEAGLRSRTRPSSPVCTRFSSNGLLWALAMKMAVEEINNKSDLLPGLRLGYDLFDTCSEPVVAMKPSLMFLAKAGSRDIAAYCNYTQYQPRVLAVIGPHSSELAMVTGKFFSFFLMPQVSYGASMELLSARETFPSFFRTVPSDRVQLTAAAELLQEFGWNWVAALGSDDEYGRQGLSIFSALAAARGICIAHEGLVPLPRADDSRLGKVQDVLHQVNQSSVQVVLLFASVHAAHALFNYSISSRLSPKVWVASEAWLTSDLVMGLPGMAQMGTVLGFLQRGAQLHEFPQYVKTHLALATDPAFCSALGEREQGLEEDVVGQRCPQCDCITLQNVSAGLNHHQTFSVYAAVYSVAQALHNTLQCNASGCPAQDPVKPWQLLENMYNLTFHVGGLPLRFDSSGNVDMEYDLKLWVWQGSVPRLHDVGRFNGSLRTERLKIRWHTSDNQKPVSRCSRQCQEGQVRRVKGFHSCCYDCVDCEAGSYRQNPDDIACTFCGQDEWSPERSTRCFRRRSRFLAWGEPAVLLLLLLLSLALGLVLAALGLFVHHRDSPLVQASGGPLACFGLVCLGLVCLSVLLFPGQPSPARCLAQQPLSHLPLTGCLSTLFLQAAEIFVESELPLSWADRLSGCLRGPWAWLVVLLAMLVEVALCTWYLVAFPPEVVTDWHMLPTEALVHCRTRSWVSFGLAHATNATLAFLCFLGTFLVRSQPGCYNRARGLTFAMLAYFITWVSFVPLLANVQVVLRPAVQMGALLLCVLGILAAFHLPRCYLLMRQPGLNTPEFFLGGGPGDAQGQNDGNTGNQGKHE

[1] = tested on: L cells located in the gut; details: administration of metformin

| Compound | Sweetness/potency (sweet receptor) | further results |
| --- | --- | --- |
| C=C1C[C@@]23CC[C@H]4[C@@](C)(CCC[C@@]4(C)C(=O)O[C@@H]4O[C@H](CO)[C@@H](O)[C@H](O)[C@H]4O)[C@@H]2CC[C@]1(O[C@@H]1O[C@H](CO)[C@@H](O)[C@H](O[C@@H]2O[C@H](CO)[C@@H](O)[C@H](O)[C@H]2O)[C@H]1O[C@@H]1O[C@H](CO)[C@@H](O)[C@H](O)[C@H]1O)C3 [Rebaudioside A] | – | gut hormones in the circulation (gut hormones): no alterations |
| CC(C)=CCC[C@](C)(O)[C@@H]1CCC(C)=CC1=O [(+)-Hernandulcin] | 1,500 | – |
| COc1ccc(C2Oc3cc(O)cc(O)c3C(=O)C2OC(C)=O)cc1O (stereo not drawn) [Dihydroquercetin 3-O-acetate 4'-methyl ether] | 400 | – |
| COc1ccc([C@H]2Cc3cccc(O)c3C(=O)O2)cc1O [Phyllodulcin] | 400 | – |
| CC1(C(=O)O)C=C2C3CCC4C5(CO)CCC(OC6OC(C(=O)O)C(O)C(O)C6OC6OC(C(=O)O)C(O)C(O)C6O)C(C)(C)C5CCC4(C)C3(C)CCC2(C)CC1 (stereo not drawn) [Periandrin III] | 92 | – |
| Scandenoside R6 | 54 | – |
| C[C@@H]1O[C@@H](O[C@H]2[C@H](Oc3cc(O)c(C(=O)CCc4ccc(O)cc4)c(O)c3)O[C@H](CO)[C@@H](O)[C@@H]2O)[C@H](O)[C@H](O)[C@H]1O [Naringin dihydrochalcone] | 300 | – |
| C/C(=C\CC[C@@H](C)[C@H]1CC[C@@]2(C)[C@@H]3CC=C4[C@@H](CC[C@H](O[C@@H]5O[C@H](CO)[C@@H](O)[C@H](O)[C@H]5O)C4(C)C)[C@]3(C)[C@H](O)C[C@]12C)CO[C@@H]1O[C@H](CO[C@@H]2O[C@H](CO)[C@@H](O)[C@H](O)[C@H]2O)[C@@H](O)[C@H](O)[C@H]1O [Carnosifloside VI] | 77 | – |
| Thaumatin | 1,600 | – |
| Monellin | 3,000 | – |
| CC(=O)O[C@H]1C(=O)c2c(O)cc(O)cc2O[C@@H]1c1ccc(O)c(O)c1 [(2R,3R)-Dihydroquercetin 3-O-acetate] | 80 | – |
| C=C1C[C@@]23CC[C@H]4[C@@](C)(CCC[C@@]4(C)C(=O)O)[C@@H]2CC[C@]1(O[C@@H]1O[C@H](CO)[C@@H](O)[C@H](O)[C@H]1O[C@@H]1O[C@H](CO)[C@@H](O)[C@H](O)[C@H]1O)C3 [Steviolbioside] | 90 | – |
| Cyclocarioside A | 200 | – |
| CN(C)C(=N)N=C(N)N [metformin] | – | release of GLP-1 from the L cells [1]: increases |
| Pterocaryoside A | 50 | – |
